30 molecules from patent US4623662A, “Antiatherosclerotic ureas and thioureas” (American Cyanamid Company, priority 1985, dated 1986) can be followed below.

Read-outs that look alike come from different tables or passages of the source.

The subject of this test is cholesterol absorption. Kind of test: Inhibition of cholesterol absorption in rats fed 1% cholesterol:0.5% cholic acid diet. The test is classed as in vivo, male Sprague-Dawley rats. Particulars: po, 336 h, rat, 2 weeks; for response vs control in vivo at 0.003 %: dose .003% of the diet; for response vs control in vivo at 0.001 %: dose .001% of the diet; for response vs control in vivo at 0.01 %: dose .01% of the diet. As to the method: Inhibition of cholesterol absorption was determined by feeding male Sprague-Dawley rats, weighing 150-170 g, a 1% cholesterol:0.5% cholic acid diet for 2 weeks. The diet also contained compounds being tested at a dose of 0.001, 0.003, 0.01, or 0.03% of the diet. Control rats were fed the same diet without any compound. At the end of the test, the rats were sacrificed by decapitation. Blood was collected, centrifuged at […] for 10 minutes at 4° C.; and the serum was then analyzed for cholesterol and triglycerides enzymatically by the method of Trinder, P., Analyst, 77, 321 (1952) on a Centrifichem 400 analyzer. Livers were removed, a 0.4 g sample was taken from the center of the large lobe, and the sample was subjected to saponification using 25% saturated potassium hydroxide in ethanol. The resulting neutral sterols were extracted with petroleum ether and the extract analyzed for cholesterol. The effectiveness of the compound in inhibiting cholesterol absorption was measured by the lowering of either serum cholesterol or liver cholesterol relative the values for control rats.
Compounds which produced statistically significant inhibition of cholesterol absorption are considered to be active. Liver sterol (LS) and serum sterol (SS) values are expressed as a percentage of control values.

[1] abbreviates: read-out: LS (liver sterol), percentage of control values.
Where [2] appears, read: read-out: SS (serum sterol), percentage of control values.

Take `CCCCCCCN(Cc1ccc(CCOC(C)=O)cc1)C(=O)Nc1ccc(F)cc1F` [1-(n-Heptyl)-1-[4-(2-acetoxyethyl)benzyl]-3-(2,4-difluorophenyl)urea]: the response vs control in vivo at 0.003 % stood at 60% under setting [1] and 55% under setting [2].
Turning to `CCCCCCCN(Cc1ccc(CC(CC)CC)cc1)C(=O)Nc1c(F)cc(F)cc1F` [1-(n-Heptyl)-1-[4-(2-ethylbutyl)benzyl)-3-(2,4,6-trifluorophenyl)urea], the response vs control in vivo at 0.001 % runs as follows: under setting [1], 75%; under setting [2], 120%.
On to `CCCCCCCN(Cc1ccc(CC(CC)CC)cc1)C(=O)Nc1ccc(F)cc1F` [1-(n-Heptyl)-1-[4-(2-ethylbutyl)benzyl]-3-(2,4-difluorophenyl)urea], for which the response vs control in vivo at 0.003 % runs as follows: under setting [1], 98%; under setting [2], 66%.
On to `CCCCCCCN(Cc1ccc(CC(CC)CC)cc1)C(=O)Nc1c(C)cc(Cl)cc1C` [1-(n-Heptyl)-1-[4-(2-ethylbutyl)benzyl]-3-(4-chloro-2,6-dimethylphenyl)urea], for which the response vs control in vivo at 0.001 % under setting [1] turned out to be 94% and the response vs control in vivo at 0.001 % under setting [2] amounted to 62%.
Turning to `CCCCCCCN(Cc1ccc(CC(CC)CCCC)cc1)C(=O)Nc1c(F)cc(F)cc1F` (stereo not drawn) [1-(n-Heptyl)-1-[4-(2-ethylhexyl)benzyl]-3-(2,4,6-trifluorophenyl)urea], the response vs control in vivo at 0.001 % reads like this: under setting [1], 87%; under setting [2], 82%.
For the molecule `CCCCCCCN(Cc1ccc(CC(CC)CCCC)cc1)C(=O)Nc1ccc(F)cc1F` (stereo not drawn) [1-(n-Heptyl)-1-[4-(2-ethylhexyl)benzyl]-3-(2,4-difluorophenyl)urea], the response vs control in vivo at 0.003 % by setting is: under setting [1], 56%; under setting [2], 63%.
For `CCCCCCCN(Cc1ccc(CC(CC)CCCC)cc1)C(=O)Nc1c(C)cc(Cl)cc1C` (stereo not drawn) [1-(n-Heptyl)-1-[4-(2-ethylhexyl)benzyl]-3-(4-chloro-2,6-dimethylphenyl)urea], the response vs control in vivo at 0.001 % by setting is: under setting [1], 87%; under setting [2], 83%.
As for `CCCCCCCN(Cc1ccc(CCO)cc1)C(=O)Nc1ccc(F)cc1F` [1-(n-Heptyl)-1-[4-(2-hydroxyethyl)benzyl]-3-(2,4-difluorophenyl)urea], the response vs control in vivo at 0.003 % reads like this: under setting [1], 59%; under setting [2], 52%.
On to `CCCCCCCN(Cc1ccc(CC[S+]([O-])C(C)C)cc1)C(=O)Nc1c(C)cc(Cl)cc1C` (stereo not drawn) [1-(n-Heptyl)-1-[4-(2-isopropylsulfinylethyl)benzyl]-3-(4-chloro-2,6-dimethylphenyl)urea], for which the response vs control in vivo at 0.003 % reads like this: under setting [1], 54%; under setting [2], 45%.
On to `CCCCCCCN(Cc1ccc(CCS(=O)(=O)C(C)C)cc1)C(=O)Nc1ccc(F)cc1F` [1-(n-Heptyl)-1-[4-(2-isopropylsulfonylethyl)benzyl]-3-(2,4-difluorophenyl)urea], for which the response vs control in vivo at 0.003 % under setting [1] amounted to 68% and the response vs control in vivo at 0.003 % under setting [2] came to 94%.
For `CCCCCCCN(Cc1ccc(CCS(=O)(=O)C(C)C)cc1)C(=O)Nc1c(C)cc(Cl)cc1C` [1-(n-Heptyl)-1-[4-(2-isopropylsulfonylethyl)benzyl]-3-(4-chloro-2,6-dimethylphenyl)urea], the response vs control in vivo at 0.003 % is 54% under setting [1] and 57% under setting [2].
Taken in the same sequence, the figures for `CCCCCCCN(Cc1ccc(CCSC(C)C)cc1)C(=O)Nc1c(C)cc(Cl)cc1C` [1-(n-Heptyl)-1-[4-(2-isopropylthioethyl)benzyl]-3-(4-chloro-2,6-dimethylphenyl)urea] were 51% and 49%.
Consider `CCCCCCCN(Cc1ccc(CC(C)CC)cc1)C(=O)Nc1c(F)cc(F)cc1F` (stereo not drawn) [1-(n-Heptyl)-1-[4-(2-methylbutyl)benzyl]-3-(2,4,6-trifluorophenyl)urea], for which the response vs control in vivo at 0.001 % came out at 64% under setting [1] and 76% under setting [2].
Turning to `CCCCCCCN(Cc1ccc(CC(C)CC)cc1)C(=O)Nc1ccc(F)cc1F` (stereo not drawn) [1-(n-Heptyl)-1-[4-(2-methylbutyl)benzyl]-3-(2,4-difluorophenyl)urea], the response vs control in vivo at 0.01 % reads like this: under setting [1], 42%; under setting [2], 36%.
For `CCCCCCCN(Cc1ccc(CC(C)CCC)cc1)C(=O)Nc1c(F)cc(F)cc1F` (stereo not drawn) [1-(n-Heptyl)-1-[4-(2-methylpentyl)benzyl]-3-(2,4,6-trifluorophenyl)urea], the response vs control in vivo at 0.001 % is, setting by setting: under setting [1], 75%; under setting [2], 93%.
Regarding `CCCCCCCN(Cc1ccc(CC(C)CCC)cc1)C(=O)Nc1ccc(F)cc1F` (stereo not drawn) [1-(n-Heptyl)-1-[4-(2-methylpentyl)benzyl]-3-(2,4-difluorophenyl)urea], the response vs control in vivo at 0.003 % runs as follows: under setting [1], 72%; under setting [2], 53%.
As for `CCCCCCCN(Cc1ccc(CC(C)CCC)cc1)C(=O)Nc1c(C)cc(Cl)cc1C` (stereo not drawn) [1-(n-Heptyl)-1-[4-(2-methylpentyl)benzyl]-3-(4-chloro-2,6-dimethylphenyl)urea], the response vs control in vivo at 0.001 % is, setting by setting: under setting [1], 56%; under setting [2], 61%.
Turning to `CCCCCCCN(Cc1ccc(OCCC(C)C)cc1)C(=O)Nc1ccc(F)cc1F` [1-(n-Heptyl)-1-[4-(3-methylbutoxy)benzyl]-3-(2,4-difluorophenyl)urea], the response vs control in vivo at 0.01 % reads like this: under setting [1], 32%; under setting [2], 27%.
With `CCCCCCCN(Cc1ccc(CCC(C)CC)cc1)C(=O)Nc1c(F)cc(F)cc1F` (stereo not drawn) [1-(n-Heptyl)-1-[4-(3-methylpentyl)benzyl]-3-(2,4,6-trifluorophenyl)urea], the response vs control in vivo at 0.003 % under setting [1] was determined as 46% and the response vs control in vivo at 0.003 % under setting [2] worked out at 36%.
Regarding `CCCCCCCN(Cc1ccc(CCC(C)CC)cc1)C(=O)Nc1ccc(F)cc1F` (stereo not drawn) [1-(n-Heptyl)-1-[4-(3-methylpentyl)benzyl]-3-(2,4-difluorophenyl)urea], the response vs control in vivo at 0.001 % under setting [1] amounted to 89% and the response vs control in vivo at 0.001 % under setting [2] was 72%.
With `CCCCCCCN(Cc1ccc(CCC(C)CC)cc1)C(=O)Nc1c(C)cc(Cl)cc1C` (stereo not drawn) [1-(n-Heptyl)-1-[4-(3-methylpentyl)benzyl]-3-(4-chloro-2,6-dimethylphenyl)urea], the response vs control in vivo at 0.003 % runs as follows: under setting [1], 45%; under setting [2], 38%.
In the same order, the values of `CCCCCCCN(Cc1ccc(CCCCSCC)cc1)C(=O)Nc1c(C)cc(Cl)cc1C` [1-(n-Heptyl)-1-[4-(4-ethylthiobutyl)benzyl]-3-(4-chloro-2,6-dimethylphenyl)urea] are 63% and 57%.
Take `CCCCCCCN(Cc1ccc(CCCCSC(C)C)cc1)C(=O)Nc1c(C)cc(Cl)cc1C` [1-(n-Heptyl)-1-[4-(4-isopropylthiobutyl)benzyl]-3-(4-chloro-2,6-dimethylphenyl)urea]: the response vs control in vivo at 0.01 % under setting [1] was 45% and the response vs control in vivo at 0.01 % under setting [2] was determined as 49%.
With `CCCCCCCN(Cc1ccc(CC2CCC2)cc1)C(=O)Nc1c(F)cc(F)cc1F` [1-(n-Heptyl)-1-[4-(cyclobutylmethyl)benzyl]-3-(2,4,6-trifluorophenyl)urea], the response vs control in vivo at 0.001 % under setting [1] was 66% and the response vs control in vivo at 0.001 % under setting [2] was found to be 62%.
For the molecule `CCCCCCCN(Cc1ccc(CC2CCC2)cc1)C(=O)Nc1c(C)cc(Cl)cc1C` [1-(n-Heptyl)-1-[4-(cyclobutylmethyl)benzyl]-3-(4-chloro-2,6-dimethylphenyl)urea], the response vs control in vivo at 0.001 % under setting [1] was determined as 69% and the response vs control in vivo at 0.001 % under setting [2] came out at 64%.
Regarding `CCCCCCCN(Cc1ccc(C2CCCC2)cc1)C(=O)Nc1c(F)cc(F)cc1F` [1-(n-Heptyl)-1-[4-(cyclopentyl)benzyl]-3-(2,4,6-trifluorophenyl)urea], the response vs control in vivo at 0.001 % reads like this: under setting [1], 58%; under setting [2], 69%.
Turning to `CCCCCCCN(Cc1ccc(C2CCCC2)cc1)C(=O)Nc1ccc(F)cc1F` [1-(n-Heptyl)-1-[4-(cyclopentyl)benzyl]-3-(2,4-difluorophenyl)urea], the response vs control in vivo at 0.003 % is, setting by setting: under setting [1], 82%; under setting [2], 80%.
On to `CCCCCCCN(Cc1ccc(C2CCCC2)cc1)C(=O)Nc1c(Cl)cc(Cl)cc1Cl` [1-(n-Heptyl)-1-[4-(cyclopentyl)benzyl]-3-(4-chloro-2,6-dichlorophenyl)urea], for which the response vs control in vivo at 0.003 % is, setting by setting: under setting [1], 36%; under setting [2], 35%.
With `CCCCCCCN(Cc1ccc(CC2CCCC2)cc1)C(=O)Nc1c(F)cc(F)cc1F` [1-(n-Heptyl)-1-[4-(cyclopentylmethyl)benzyl]-3-(2,4,6-trifluorophenyl)urea], the response vs control in vivo at 0.003 % under setting [1] was 50% and the response vs control in vivo at 0.003 % under setting [2] turned out to be 62%.
On to `CCCCCCCN(Cc1ccc(CC2CCCC2)cc1)C(=O)Nc1c(C)cc(Cl)cc1C` [1-(n-Heptyl)-1-[4-(cyclopentylmethyl)benzyl]-3-(4-chloro-2,6-dimethylphenyl)urea], for which the response vs control in vivo at 0.003 % is, setting by setting: under setting [1], 53%; under setting [2], 45%.
